The text below walks through data of US11739098B2 (BRISTOL-MYERS SQUIBB COMPANY, priority 2017, dated 2023).

One may read the IC50 as the concentration that inhibits the measured activity by half.

What all share (type): cell-based
For one assay, the target named is T1, human TLR9 (Homo sapiens, UniProt Q9NR96).
T1 construct: host or cells: HEK-Blue cells (HEK293-derived reporter line)
T1 sequence (Q9NR96 26-1032): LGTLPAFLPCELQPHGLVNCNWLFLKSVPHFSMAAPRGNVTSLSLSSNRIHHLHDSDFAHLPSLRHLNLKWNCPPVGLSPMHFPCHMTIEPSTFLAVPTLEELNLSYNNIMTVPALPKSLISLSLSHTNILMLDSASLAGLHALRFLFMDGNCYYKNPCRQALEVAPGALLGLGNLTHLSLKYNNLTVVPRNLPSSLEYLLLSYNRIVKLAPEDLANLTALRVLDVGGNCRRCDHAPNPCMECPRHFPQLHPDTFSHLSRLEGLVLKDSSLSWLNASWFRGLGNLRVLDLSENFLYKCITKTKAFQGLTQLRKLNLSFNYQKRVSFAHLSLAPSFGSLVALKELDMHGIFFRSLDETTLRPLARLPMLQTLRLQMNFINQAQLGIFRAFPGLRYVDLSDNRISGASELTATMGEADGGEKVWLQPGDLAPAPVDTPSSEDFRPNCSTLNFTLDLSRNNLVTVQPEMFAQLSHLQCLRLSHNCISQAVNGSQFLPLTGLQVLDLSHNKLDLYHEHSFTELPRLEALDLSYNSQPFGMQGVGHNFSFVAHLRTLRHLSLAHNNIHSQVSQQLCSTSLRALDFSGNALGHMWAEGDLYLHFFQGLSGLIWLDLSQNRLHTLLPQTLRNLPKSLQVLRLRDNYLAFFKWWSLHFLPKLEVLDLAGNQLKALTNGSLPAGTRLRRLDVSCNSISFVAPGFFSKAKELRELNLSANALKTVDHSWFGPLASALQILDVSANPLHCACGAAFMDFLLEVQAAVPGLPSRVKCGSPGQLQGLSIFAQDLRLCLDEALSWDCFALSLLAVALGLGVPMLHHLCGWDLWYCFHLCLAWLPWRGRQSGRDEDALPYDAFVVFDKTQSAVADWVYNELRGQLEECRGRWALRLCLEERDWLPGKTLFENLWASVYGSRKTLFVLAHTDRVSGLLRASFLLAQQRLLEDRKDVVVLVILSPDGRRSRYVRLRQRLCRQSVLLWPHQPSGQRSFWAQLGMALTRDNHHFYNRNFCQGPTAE
Briefly: TLR9 inhibition reporter assay (HEK-Blue cells, SEAP reporter, ODN2006 stimulation). As to conditions: HEK-Blue cells overexpressing human TLR9, SEAP reporter, ODN2006 5 nM. In short, it runs like this:
(§1)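 After 22 h at 37 °C, SEAP secretion was measured from human TLR7-, TLR8- or TLR9-expressing HEK-Blue reporter cells given compound (0.05 nM–50 μM) 30 min before agonist: 7.5 μM gardiquimod, 15.9 μM R848 or 5 nM ODN2006 respectively. Percent inhibition referenced to agonist-plus-DMSO and known-inhibitor wells.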

A further assay addresses T2, human TLR8 (Homo sapiens, UniProt Q9NR97).
T2 construct: host or cells: HEK-Blue cells (HEK293-derived reporter line)
T2 sequence (Q9NR97 27-1041): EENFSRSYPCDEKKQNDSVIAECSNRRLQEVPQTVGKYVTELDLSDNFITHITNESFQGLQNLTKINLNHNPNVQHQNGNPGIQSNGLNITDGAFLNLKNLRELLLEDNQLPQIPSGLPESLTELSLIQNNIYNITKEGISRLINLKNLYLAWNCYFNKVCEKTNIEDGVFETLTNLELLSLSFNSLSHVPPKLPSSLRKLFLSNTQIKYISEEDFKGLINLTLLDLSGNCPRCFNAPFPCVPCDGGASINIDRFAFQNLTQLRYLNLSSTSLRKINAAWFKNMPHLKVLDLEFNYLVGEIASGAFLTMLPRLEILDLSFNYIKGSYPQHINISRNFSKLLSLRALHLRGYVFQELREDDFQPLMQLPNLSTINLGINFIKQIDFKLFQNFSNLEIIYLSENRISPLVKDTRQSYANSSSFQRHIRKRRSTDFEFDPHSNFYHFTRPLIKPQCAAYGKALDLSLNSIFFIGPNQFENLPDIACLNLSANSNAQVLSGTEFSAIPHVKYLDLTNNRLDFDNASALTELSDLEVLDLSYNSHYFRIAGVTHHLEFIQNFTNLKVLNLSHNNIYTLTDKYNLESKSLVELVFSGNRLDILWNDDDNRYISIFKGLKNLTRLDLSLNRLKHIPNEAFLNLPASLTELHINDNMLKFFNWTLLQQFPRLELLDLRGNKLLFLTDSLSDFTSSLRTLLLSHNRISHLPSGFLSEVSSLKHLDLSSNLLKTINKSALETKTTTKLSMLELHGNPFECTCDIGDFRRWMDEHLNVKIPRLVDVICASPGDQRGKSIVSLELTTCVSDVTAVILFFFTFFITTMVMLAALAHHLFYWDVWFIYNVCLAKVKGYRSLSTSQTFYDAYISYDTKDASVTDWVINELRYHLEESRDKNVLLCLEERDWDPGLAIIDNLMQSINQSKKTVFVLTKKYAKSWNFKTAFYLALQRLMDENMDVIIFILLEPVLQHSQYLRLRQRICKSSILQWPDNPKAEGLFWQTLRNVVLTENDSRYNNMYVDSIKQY
Briefly: TLR8 inhibition reporter assay (HEK-Blue cells, SEAP reporter, R848 stimulation). As to conditions: HEK-Blue cells overexpressing human TLR8, SEAP reporter, R848 15.9 μM. In short, it runs like this: as §1

For another assay, the target named is T3, human TLR7 (Homo sapiens, UniProt Q9NYK1).
T3 construct: host or cells: HEK-Blue cells (HEK293-derived reporter line)
T3 sequence (Q9NYK1 27-1049): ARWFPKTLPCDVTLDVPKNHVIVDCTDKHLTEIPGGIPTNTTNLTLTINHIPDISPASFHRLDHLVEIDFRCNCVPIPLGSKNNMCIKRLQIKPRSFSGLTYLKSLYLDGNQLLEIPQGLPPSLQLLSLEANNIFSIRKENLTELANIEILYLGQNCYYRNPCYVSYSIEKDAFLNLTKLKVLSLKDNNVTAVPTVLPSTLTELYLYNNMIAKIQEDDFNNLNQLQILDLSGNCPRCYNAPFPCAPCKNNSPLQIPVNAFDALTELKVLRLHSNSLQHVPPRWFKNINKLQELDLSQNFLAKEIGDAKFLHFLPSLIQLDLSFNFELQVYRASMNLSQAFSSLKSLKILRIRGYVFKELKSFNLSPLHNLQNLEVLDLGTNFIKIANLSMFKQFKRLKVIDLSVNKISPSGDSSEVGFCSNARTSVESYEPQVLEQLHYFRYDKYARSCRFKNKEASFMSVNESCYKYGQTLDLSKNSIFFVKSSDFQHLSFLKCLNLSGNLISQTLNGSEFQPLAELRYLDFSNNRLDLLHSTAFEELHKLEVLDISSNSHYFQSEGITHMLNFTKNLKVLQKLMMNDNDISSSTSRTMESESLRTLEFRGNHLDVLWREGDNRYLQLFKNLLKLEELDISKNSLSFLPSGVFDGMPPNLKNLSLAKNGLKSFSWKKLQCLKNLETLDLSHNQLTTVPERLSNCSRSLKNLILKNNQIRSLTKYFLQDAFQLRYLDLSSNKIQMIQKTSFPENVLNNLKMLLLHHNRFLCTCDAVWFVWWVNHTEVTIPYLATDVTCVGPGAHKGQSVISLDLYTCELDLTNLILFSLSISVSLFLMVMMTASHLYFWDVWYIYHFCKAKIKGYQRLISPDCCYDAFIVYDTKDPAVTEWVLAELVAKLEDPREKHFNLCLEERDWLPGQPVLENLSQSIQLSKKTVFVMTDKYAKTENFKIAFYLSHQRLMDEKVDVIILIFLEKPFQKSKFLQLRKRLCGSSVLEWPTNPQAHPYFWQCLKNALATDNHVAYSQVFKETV
In words: TLR7 inhibition reporter assay (HEK-Blue cells, SEAP reporter, gardiquimod stimulation). As to conditions: HEK-Blue cells overexpressing human TLR7, SEAP reporter, gardiquimod 7.5 μM. In short, it runs like this: as §1
A general note: A reporter such as luciferase makes a cellular process visible.

Each structure is given as a SMILES string.

Consider `CC(C)c1c(-c2cnc3[nH]ccc3c2)[nH]c2ccc(C3CCN(C4CCN(C)CC4)CC3)cc12` [Example 802, 5-(3-isopropyl-5-(1′-methyl-[1,4′-bipiperidin]-4-yl)-1H-indol-2-yl)-1H-pyrrolo[2,3-b]pyridine], for which the half-inhibitory concentration (IC50) against human TLR9, against human TLR8 and against human TLR7 was 0.1 to 1 µM each time.

For `Cc1cc(-c2[nH]c3ccc(C4CCN(C(=O)CN(C)C)CC4)cc3c2C(C)C)nn2ncnc12` [Example 454, 2-(dimethylamino)-1-(4-(3-isopropyl-2-(8-methyl-[1,2,4]triazolo[1,5-b]pyridazin-6-yl)-1H-indol-5-yl)piperidin-1-yl)ethan-1-one], the IC50 against human TLR9 was 1 to 50 µM; against human TLR8, under 0.1 µM; at human TLR7, under 0.1 µM.

Consider `Cc1c(-c2ccnc3[nH]cc(N)c23)[nH]c2ccc(C3CCNCC3)cc12` [Example 211, 4-(3-methyl-5-(piperidin-4-yl)-1H-indol-2-yl)-1H-pyrrolo[2,3-b]pyridin-3-amine], for which the IC50 against human TLR9, against human TLR8 and at human TLR7 was 1 to 50 µM each time.

As for `CNCCN1CCC(c2ccc3[nH]c(-c4ccnc5[nH]ncc45)c(C(C)C)c3c2)C(F)C1` (stereo not drawn) [Example 677, 2-(3-fluoro-4-(3-isopropyl-2-(1H-pyrazolo[3,4-b]pyridin-4-yl)-1H-indol-5-yl)piperidin-1-yl)-N-methylethan-1-amine], the 50% inhibitory concentration (IC50) against human TLR9 is 0.1 to 1 µM; against human TLR8 it was under 0.1 µM; at human TLR7, under 0.1 µM.

For the molecule `CC(C)c1c(-c2ccc3nnnn3c2)[nH]c2ccc(C3CCNCC3)cc12` [Example 80, 6-(3-isopropyl-5-(piperidin-4-yl)-1H-indol-2-yl)tetrazolo[1,5-a]pyridine], the results for the IC50 against human TLR9, at human TLR8 and against human TLR7 were 1 to 50 µM, 0.1 to 1 µM and under 0.1 µM, respectively.

In the case of `Cc1ncc(CN2CCC(c3ccc4[nH]c(-c5cn(C)c6ncccc56)c(C(C)C)c4c3)CC2)cn1` [Example 876, 3-(3-isopropyl-5-(1-((2-methylpyrimidin-5-yl)methyl)piperidin-4-yl)-1H-indol-2-yl)-1-methyl-1H-pyrrolo[2,3-b]pyridine], the IC50 is 1 to 50 µM on human TLR9, under 0.1 µM against human TLR8 and under 0.1 µM against human TLR7.

For the molecule `CC(C)c1c(-c2ccnc3cn[nH]c23)[nH]c2ccc(C3CCNCC3)cc12` [Example 54, 7-(3-isopropyl-5-(piperidin-4-yl)-1H-indol-2-yl)-1H-pyrazolo[4,3-b]pyridine], the IC50 against human TLR9 is 0.1 to 1 µM; against human TLR8, under 0.1 µM; against human TLR7, under 0.1 µM.

For `Cc1cc(-c2[nH]c3ccc(C4CCN(CC(=O)N(C)C)CC4)cc3c2C(C)C)c2ccccc2n1` [Example 327, 2-(4-(3-isopropyl-2-(2-methylquinolin-4-yl)-1H-indol-5-yl)piperidin-1-yl)-N,N-dimethylacetamide], the IC50 at human TLR9 was 1 to 50 µM; against human TLR8, under 0.1 µM; against human TLR7, under 0.1 µM.

Take `CCc1c(-c2ccnc3[nH]ncc23)[nH]c2c(F)cc(C3CCNCC3)cc12` [Example 251, 4-(3-ethyl-7-fluoro-5-(piperidin-4-yl)-1H-indol-2-yl)-1H-pyrazolo[3,4-b]pyridine]: the IC50 is 0.1 to 1 µM at human TLR9, 0.1 to 1 µM against human TLR8 and under 0.1 µM at human TLR7.

Regarding `CC(C)c1c(-c2ccnc3[nH]ncc23)[nH]c2ccc(C3CCN(C(=O)CN4CC[C@@H](N(C)C)C4)CC3)cc12` [Example 582, (R)-2-(3-(dimethylamino)pyrrolidin-1-yl)-1-(4-(3-isopropyl-2-(1H-pyrazolo[3,4-b]pyridin-4-yl)-1H-indol-5-yl)piperidin-1-yl)ethan-1-one], the figures for the IC50 against human TLR9, at human TLR8 and against human TLR7 were 0.1 to 1 µM, under 0.1 µM and under 0.1 µM, respectively.
